According to paper PMC11200585, “Prospects for Prostate Cancer Chemotherapy: Cytotoxic Evaluation and Mechanistic Insights of Quinolinequinones with ADME/PK Profile” (Biomedicines, 2024):

Assays:
Format in all cases: cell-based, human
IGROV1 = experiment: NCI-60 five-dose assay (ovarian cancer); conditions: SRB
SK-MEL-5 = experiment: NCI-60 five-dose assay (melanoma); conditions: 48 h, SRB
SK-MEL-2 = experiment: NCI-60 five-dose assay (melanoma); conditions: 48 h, SRB
UACC-62 = experiment: NCI-60 five-dose assay (melanoma); conditions: 48 h, SRB
SR = experiment: NCI-60 five-dose assay (leukemia); conditions: 48 h, SRB
U251 [1] = experiment: NCI-60 five-dose assay (CNS cancer); conditions: SRB
HCT-116 = experiment: NCI-60 one-dose screen (colon cancer); conditions: 10 µM single dose, 48 h
Description: (§1) The obtained quinolinequinones were submitted to NCI, Bethesda, USA, and, as per standard protocol of NCI, all compounds were evaluated for their antiproliferative activity at single-dose assay (10 µM concentration in DMSO) on a panel of 60 cancer cell lines derived from leukemia, non-small-cell lung, colon, CNS, melanoma, ovarian, renal, prostate, and breast, as per protocol. Tested compounds were added to the microtiter culture plates followed by incubation for 48 h at 37 °C. Sulforhodamine B (SRB), a protein-binding dye, is used for endpoint determination. The percent of the growth of the treated cells was determined in comparison to the untreated control cells and the results of each tested compound were reported. Data from one-dose experiments pertain to the percentage growth at 10 μM [16, 17, 18].

KM12 [2] = experiment: NCI-60 one-dose screen (colon cancer); conditions: 10 µM single dose, 48 h
Description: as §1

HCC-2998 = experiment: NCI-60 one-dose screen (colon cancer); conditions: 10 µM single dose, 48 h
Description: as §1

HT29 [3] = experiment: NCI-60 one-dose screen (colon cancer); conditions: 10 µM single dose, 48 h
Description: as §1

COLO 205 [4] = experiment: NCI-60 one-dose screen (colon cancer); conditions: 10 µM single dose, 48 h
Description: as §1

HCT-15 [5] = experiment: NCI-60 one-dose screen (colon cancer); conditions: 10 µM single dose, 48 h
Description: as §1

SW-620 = experiment: NCI-60 one-dose screen (colon cancer); conditions: 10 µM single dose, 48 h
Description: as §1

SNB-75 [6] = experiment: NCI-60 one-dose screen (CNS cancer); conditions: 10 µM single dose, 48 h
Description: as §1

SF-295 [7] = experiment: NCI-60 one-dose screen (CNS cancer); conditions: 10 µM single dose, 48 h
Description: as §1

SF-268 = experiment: NCI-60 one-dose screen (CNS cancer); conditions: 10 µM single dose, 48 h
Description: as §1

SNB-19 = experiment: NCI-60 one-dose screen (CNS cancer); conditions: 10 µM single dose, 48 h
Description: as §1

U251 [8] = experiment: NCI-60 one-dose screen (CNS cancer); conditions: 10 µM single dose, 48 h
Description: as §1

SF-539 = experiment: NCI-60 one-dose screen (CNS cancer); conditions: 10 µM single dose
Description: as §1

SNB-75 [9] = experiment: NCI-60 five-dose assay (CNS cancer); conditions: 48 h, SRB
HCT-15 [10] = experiment: NCI-60 five-dose assay (colon cancer); conditions: 48 h, SRB
KM12 [11] = experiment: NCI-60 five-dose assay (colon cancer); conditions: 48 h, SRB
HL-60(TB) = experiment: NCI-60 five-dose assay (leukemia); conditions: 48 h, SRB
SN12C = experiment: NCI-60 five-dose assay (renal cancer); conditions: 48 h, SRB
NCI-H23 = experiment: NCI-60 five-dose assay (non-small cell lung cancer); conditions: 48 h, SRB
A549/ATCC = experiment: as above; conditions: 48 h, SRB
MDA-MB-231/ATCC [12] = experiment: NCI-60 five-dose assay (breast cancer); conditions: 48 h, SRB
LOX IMVI = experiment: NCI-60 five-dose assay (melanoma); conditions: 48 h, SRB
COLO 205 [13] = experiment: NCI-60 five-dose assay (colon cancer); conditions: 48 h, SRB
BT-549 = experiment: NCI-60 one-dose screen (breast cancer); conditions: 10 µM single dose, 48 h
Description: as §1

MDA-MB-468 = experiment: NCI-60 one-dose screen (breast cancer); conditions: 10 µM single dose, 48 h
Description: as §1

MDA-MB-231/ATCC [14] = experiment: NCI-60 one-dose screen (breast cancer); conditions: 10 µM single dose, 48 h
Description: as §1

MCF7 = experiment: NCI-60 one-dose screen (breast cancer); conditions: 10 µM single dose, 48 h
Description: as §1

HS 578T [15] = experiment: NCI-60 one-dose screen (breast cancer); conditions: 10 µM single dose, 48 h
Description: as §1

T-47D = experiment: NCI-60 one-dose screen (breast cancer); conditions: 10 µM single dose, 48 h
Description: as §1

HT29 [16] = experiment: NCI-60 five-dose assay (colon cancer); conditions: SRB
SF-295 [17] = experiment: NCI-60 five-dose assay (CNS cancer); conditions: 48 h, SRB
HS 578T [18] = experiment: NCI-60 five-dose assay (breast cancer); conditions: 48 h, SRB
[19] = Homo sapiens, read-out: LC50 (the source's name)

Compound `COc1ccccc1NC1=C(Cl)C(=O)c2nc(C)ccc2C1=O` [AQQ1] has a TGI (IGROV1; 48 h) of 2.92 µM, a GI50 (IGROV1; Homo sapiens, IGROV-1, 48 h) of 1.46 µM and an LC50 (IGROV1; Homo sapiens, IGROV-1, 48 h) of 5.86 µM. It also gave a TGI (SK-MEL-5) of 3.17 µM, a GI50 (SK-MEL-5; Homo sapiens) of 1.75 µM and a CC50 (SK-MEL-5; [19]) of 5.74 µM. It also gave a TGI (SK-MEL-2) of 3.34 µM, a GI50 (SK-MEL-2; Homo sapiens) of 1.81 µM and a CC50 (SK-MEL-2; [19]) of 6.19 µM. It also gave a TGI (UACC-62) of 3.37 µM, a GI50 (UACC-62; Homo sapiens) of 1.82 µM and an LC50 (concentration killing 50% of cells) (UACC-62; Homo sapiens) of 6.25 µM. It also gave a TGI (SR) of 4.25 µM, a GI50 (SR; Homo sapiens) of 0.794 µM and a CC50 (SR; [19]) greater than 100 µM. The TGI (U251 [1]; 48 h) was 3.73 µM, the GI50 (U251 [1]; Homo sapiens, U-251, 48 h) was 1.85 µM and the LC50 (concentration killing 50% of cells) (U251 [1]; Homo sapiens, U-251, 48 h) was 7.53 µM. For the same compound, the “GP (growth percentage)” value (HCT-116) was −80.64%, the “GP (growth percentage)” value (KM12 [2]) was 69.40% and the “GP (growth percentage)” value (HCC-2998) was 58.90%. The “GP (growth percentage)” value (HT29 [3]) was 75.04%, the “GP (growth percentage)” value (COLO 205 [4]) was 111.34% and the “GP (growth percentage)” value (HCT-15 [5]) was −47.03%. For the same compound, the “GP (growth percentage)” value (SW-620) was −63.13%, the “GP (growth percentage)” value (SNB-75 [6]) was 105.38% and the “GP (growth percentage)” value (SF-295 [7]) was 96.61%. The “GP (growth percentage)” value (SF-268) was 47.42%, the “GP (growth percentage)” value (SNB-19) was 38.92% and the “GP (growth percentage)” value (U251 [8]) was 62.79%. For the same compound, the “GP (growth percentage)” value (SF-539; 48 h) was 1.78%, the inhibition at 10 µM (SF-539; Homo sapiens) was 98.2% and the TGI (SNB-75 [9]) was 2.84 µM. It also gave a GI50 (SNB-75 [9]; Homo sapiens) of 1.5 µM, an LC50 (50% lethal concentration) (SNB-75 [9]; Homo sapiens) of 5.39 µM and a TGI (HCT-15 [10]) of 3.02 µM. For the same compound, the GI50 (HCT-15 [10]; Homo sapiens) was 1.33 µM, the CC50 (HCT-15 [10]; [19]) was 6.83 µM and the TGI (KM12 [11]) was 3.08 µM. It also gave a GI50 (KM12 [11]; Homo sapiens) of 1.49 µM, a CC50 (KM12 [11]; [19]) of 6.4 µM and a TGI (HL-60(TB)) of 3.52 µM. For the same compound, the GI50 (HL-60(TB); Homo sapiens) was 1.37 µM, the CC50 (HL-60(TB); [19]) was 9.03 µM and the TGI (SN12C) was 3.29 µM. For the same compound, the GI50 (SN12C; Homo sapiens) was 1.7 µM, the LC50 (concentration killing 50% of starting cells) (SN12C; Homo sapiens) was 6.36 µM and the TGI (NCI-H23) was 3.30 µM. It also gave a GI50 (NCI-H23; Homo sapiens) of 1.47 µM, a CC50 (NCI-H23; [19]) of 7.45 µM and a TGI (A549/ATCC) of 6.24 µM. For the same compound, the GI50 (A549/ATCC; Homo sapiens) was 2.44 µM, the CC50 (A549/ATCC; [19]) was 45.2 µM and the TGI (MDA-MB-231/ATCC [12]) was 2.53 µM. It also gave a GI50 (MDA-MB-231/ATCC [12]; Homo sapiens) of 1.19 µM, an LC50 (concentration killing 50% of cells) (MDA-MB-231/ATCC [12]; Homo sapiens) of 5.37 µM and a TGI (LOX IMVI) of 2.36 µM. For the same compound, the GI50 (LOX IMVI; Homo sapiens) was 0.952 µM, the LC50 (concentration killing 50% of cells) (LOX IMVI; Homo sapiens) was 5.7 µM and the TGI (COLO 205 [13]) was 3.87 µM. The GI50 (COLO 205 [13]; Homo sapiens) was 1.78 µM, the “GP (growth percentage)” value (BT-549) was 83.54% and the “GP (growth percentage)” value (MDA-MB-468) was −79.74%. The “GP (growth percentage)” value (MDA-MB-231/ATCC [14]) was −57.30%, the “GP (growth percentage)” value (MCF7) was −60.38% and the “GP (growth percentage)” value (HS 578T [15]) was 72.15%. For the same compound, the “GP (growth percentage)” value (T-47D) was −44.73%, the TGI (HT29 [16]; 48 h) was 4.49 µM and the GI50 (HT29 [16]; Homo sapiens, HT-29, 48 h) was 2.13 µM. For the same compound, the LC50 (concentration killing 50% of cells) (HT29 [16]; Homo sapiens, HT-29, 48 h) was 9.46 µM, the TGI (SF-295 [17]) was 3.42 µM and the GI50 (SF-295 [17]; Homo sapiens) was 1.85 µM. The LC50 (50% lethal concentration) (SF-295 [17]; Homo sapiens) was 6.32 µM, the TGI (HS 578T [18]) was 5.64 µM and the GI50 (HS 578T [18]; Homo sapiens) was 2.27 µM. The CC50 (HS 578T [18]; [19]) was greater than 100 µM.
